The source of these data is patent US20250367229A1, “Treatment of Immune-Related Disorders, Kidney Disorders, Liver Disorders, Hemolytic Disorders, and Oxidative Stress-Associated Disorders Using NRH, NARH and Reduced Derivatives Thereof” (MitoPower LLC, priority 2021, published 2025).

In one series the test system is CD4^+ T cells. Nature of the series: Ex vivo polyclonal immune activation model: cytokine production in CD4+ T cells. It counts as cell-based, human. As to conditions: stimulated with anti-CD3 and anti-CD28 antibodies; data not shown. The procedure:
Heparinized venous blood was collected from healthy human adult donors. Peripheral blood mononuclear cells (PBMCs) were isolated by Ficoll-Hypaque density-gradient centrifugation. PBMCs (1.0×10^6) were seeded in round-bottom, 96-well plates in 200 μL of medium, unstimulated or stimulated with an anti-CD3 antibody ([…], clone-HIT3a, Biolegend) plus an anti-CD28 antibody (1 μg/mL, clone-CD28.2, Biolegend) to induce T-cell activation, and incubated in cell-culture medium. The PBMCs were unstimulated or stimulated with anti-CD3 and anti-CD28 antibodies to induce T-cell activation, in the absence or presence of 250 μM NRH. After 18 hours of incubation, lymphocytes were analyzed for intracellular levels of IFN-γ, TNF-α and IL-2 by flow cytometry. Intracellular cytokine production was stopped by treating the cells with Golgi stop after 1 hr of treatment.

The next series concerns RBC hemoglobin. Nature of the series: H2O2-induced oxidative changes of RBC hemoglobin in vitro (spectral scans). The format is cell-based, human. The procedure: A 4 M stock solution of sodium azide was prepared. One mL of the 4 M stock azide solution was diluted with 9 mL of phosphate-buffered saline (PBS, pH 7.4) to obtain a 0.4 M stock solution, which was further diluted with PBS to obtain a 0.01 M working solution of sodium azide. Eight mL of whole blood was collected in buffered acid citrate dextrose tubes from a healthy human donor. PBS was added to 500 μL of whole blood. The samples were centrifuged, and then the supernatant from each tube was discarded to obtain a red blood cell (RBC) pellet. Ten μL of 0.01 M sodium azide working solution was added to 20 μL of RBC suspension. Twenty μL of hydrogen peroxide (H2O2) diluted in PBS was added to the RBC suspension to obtain final concentrations of H2O2 ranging from 0.01 mM to 100 mM. The samples were incubated at 37° C. for 1.5 hr. 950 μL of de-ionized water was added to the samples, which were then incubated for 10 min to lyse the RBCs and obtain hemoglobin upon centrifugation at 1,500 g. Spectral scans of the lysed samples between 200 nm and 1100 nm were obtained in 2 nm increments, using a Systronics® dual-beam UV-spectrophotometer and de-ionized water as a blank. Samples incubated with PBS at 37° C. for 1-1.5 hr were used as controls to establish the oxidative effects of H2O2 on RBC hemoglobin. Absorbance at 576 nm is a measure of hemoglobin concentration in a sample, and oxidation of hemoglobin to methemoglobin results in a drop in absorbance at 576 nm and an increase in absorbance at 630 nm. Fantao et al., Anal. Biochem., 521:11-19, (2017). Stock solutions of NRH (29.6 mM) and NR (18.3 mM) were prepared in 0.9% normal saline. Appropriate quantities of the stock NRH or NR solution and PBS were added to 500 μL of whole blood to obtain final concentrations of NRH or NR ranging from 1 μM to 1000 μM. The whole blood samples with NRH or NR were mixed gently and incubated at 37° C. for 1-1.5 hr. The samples were centrifuged, and then the supernatant was discarded to obtain an RBC pellet for each sample.

Another series concerns HEK293 cells. The series can be described thus: NADH/NAD+ ratio in H2O2-exposed HEK293 cells (NAD/NADH-Glo). It counts as cell-based. The note with it: NRH at 100 and 1000 μM, NR at all tested concentrations (0.01-1000 μM). The procedure:
HEK293 cells were trypsinized and plated at a density of 60,000 cells per well. The cells were then treated with H2O2 (600 μM prepared with Dulbecco's Modified Eagle Medium [DMEM]) for 30 min. The media was then replaced with serum media (DMEM supplemented with 10% fetal bovine serum [FBS]) containing NRH or NR, and were incubated at 37° C. under 6% CO2 for 30 min or 6 hr. The cells were incubated with the following concentrations of NRH or NR: 0.01, 0.1, 1.0, 10, 100 and 1000 μM. NAD^+ and NADH levels at 30 min and 6 hr were estimated using the NAD/NADH-Glo Promega Bioluminescent assay. The results were expressed as fold change relative to the values obtained with untreated cells.

Series [1] can be described thus: Distribution of intraperitoneally injected NRH to whole blood, kidney and liver (LCMS/MS). As to conditions: single intraperitoneal injection, 500 mg/kg, after 4 hr. It counts as in vivo, Wistar Han rat. The procedure: Freshly weighed NRH (100 mg) was dissolved in 500 μL sterile IP water. The NRH solution was intraperitoneally injected into a healthy, male Wistar Han rat (200 g) at a single dose of 500 mg/kg. 500 μL of sterile IP water was intraperitoneally injected into another healthy, male Wistar Han rat (200 g) as a control.
The animals were euthanized by cervical dislocation under anesthesia after 4 hr. Whole blood was collected in K2EDTA vacutainer tubes by cardiac puncture using a 2 mL syringe. The liver and kidney were harvested subsequently by dissection. The tissues were placed in a petridish, rinsed with ice-cold saline, and then weighed. 72 mg of liver of the treated animal and 74.3 mg of liver of the untreated animal were homogenized, and 71.6 mg of kidney of the treated animal and 70.7 mg of kidney of the untreated animal were homogenized. Homogenization of the tissues was carried out separately in 3 mL of ice-cold methanol (about 20 mg/mL of tissue in methanol). The homogenate was snap-frozen in liquid nitrogen and maintained at −80° C. for analysis. The blood samples were maintained at 2-8° C. for analysis.
250 μL of whole blood from the K2EDTA tubes was added to a tube containing 50 μL of 500 ng/ml of tolbutamide as the internal standard. 600 μL of ice-cold HPLC-grade methanol was added to this mixture for extraction of nicotinamide adenine dinucleotide (NAD^+) and NRH. The resulting mixture was mixed well and centrifuged at 12500 rpm for 10 min. The supernatant was measured for NAD^+ and NRH by LCMS/MS. For the liver and kidney tissues, 250 μL of the tissue homogenate was processed in the same manner.

`NC(=O)C1=CN([C@@H]2O[C@H](CO)[C@@H](O)[C@H]2O)C=CC1` [NRH, N-(β-D-ribofuranosyl)dihydronicotinamide]: the “production of pro-inflammatory cytokines (e.g., TNF-α, IL-2, IFN-γ) by CD4+ T cells” value in the series on CD4^+ T cells is “reduced production of pro-inflammatory cytokines”. Also, the “A576/A630 ratio (a measure of the hemoglobin/methemoglobin ratio)” value with RBC hemoglobin (RBCs exposed to 1 mM H2O2, 1 μM or 100 μM NRH, NR data not shown) is given as “restored”. Besides, the “protection of hemoglobin from 1 mM H2O2-induced oxidative changes (amplitude of absorbance peaks at 576, 540, 434, 348 and 270 nm)” value in the series on RBC hemoglobin (pre-incubation of RBCs with 1, 10 and 100 µM) is on record as “protected hemoglobin”. The “NADH/NAD+ ratio in HEK293 cells exposed to H2O2” value in the series with HEK293 cells (30 min of incubation) was “significantly increased”. Besides, the “NADH/NAD+ ratio in HEK293 cells exposed to H2O2” value with HEK293 cells (6 hr of incubation) is “significantly increased”. In series [1], the “concentration of NRH in the kidney (area ratio NRH/IS) versus vehicle” value is “increased concentrations”, the “concentration of NRH in the liver (area ratio NRH/IS) versus vehicle” value is “increased concentrations” and the “concentration of NRH in whole blood (area ratio NRH/IS) versus vehicle” value is listed as “increased concentrations”.
